Results published in patent publication US5420010A, “Assay for evaluating inhibition of polymorphonuclear leukocyte elastase by N-substituted azetidinones” (Merck & Co., Inc., priority 1993, dated 1995).

Tested on: HLE:α1 PI complexes
Assay: Decrease in HLE:α1 PI complexes formed in A23187-stimulated human blood (ELISA)
Format: cell-based
Conditions: after treatment with A23187, 100 μM, 30 minutes
Description: The blood was then incubated for 30 minutes at 37° C. with 100 μM A23187 (CAL. BIOCHEM.) to stimulate the release of HLE from polymorphonuclear leukocytes. Platelet rich plasma was removed from each sample and prepared for the analysis of HLE:α1 PI complexes by ELISA, and Aα(1-21) by specific RIA.
(Compound B* differs from Compound B only by the substituent on the phenoxy.) A23187, 100 μM, was added and the blood was incubated for an additional 30 minutes. The amounts of reactivation product and α1 PI:elastase complex in the plasma were determined. The total concentration of α1 PI:Elastase complexes formed was 139 μM after treatment with A23187.

CNc1ccc2oc(C[C@H]3O[C@@]4(CC[C@H]3C)O[C@H]([C@H](C)C(=O)c3ccc[nH]3)[C@H](C)C[C@H]4C)nc2c1C(=O)O [Compound A23187]
total concentration of α1 PI:Elastase complexes formed: 139 µM
